Counter-ions that a name gives are not always drawn. Marks after values point to notes of the source that are not given here.
Test system: 3-MPA-Induced Seizures
Test: Antagonism of 3-MPA-induced seizures
Format: in vivo
Conditions: mg/kg i.v. of 3-MPA required to evoke a seizure response; test drug 30 mg/kg p.o. 60 min before 3-MPA; male T/O mice
Method: Several animal seizure models are available for the screening and characterisation of anticonvulsant (antiepileptic) drugs, Most models employ a chemical convulsant to induce seizures and the anticonvulsant potencies of novel compounds are measured in terms of their ability to increase the dose of convulsant required to induce a seizure response (or to prolong the latency to seizure onset following a bolus dose of the convulsant). Most chemical convulsants work by blocking the neurotran […] function of gamma-aminobutyric acid (GABA), the predominant inhibitory neurotransmitter in the mammalian brain. This can be achieved by blocking the postsynaptic action of GABA using pentylenetetrazol or bicuculline, or via a presynaptic action using a GABA synthesis inhibitor to decrease GABA release into the synapse. […] Male albino […] (obtained from Tuck) weighing 28-40 g were used in these studies. […] Immediately following 3-MPA administration, each mouse was placed individually into a cage for observation. The seizure response of each animal was scored quantally as present or absent (response or non-response) during the 5 min period immediately following 3-MPA administration. A seizure response was defined as the onset of the initial clonic phase of the seizure (abrupt loss of righting reflex accompanied by vocalisation). The seizure threshold (in terms of mg/kg i.v. of 3-MPA required to evoke a seizure response) was determined in each treatment group by a sequential up/down method followed by modified probit analysis of the quantal data. […] In these studies, 3-MPA was obtained from Sigma. […] Drugs were administered in a dose volume of 10 ml/kg body weight.

Compound | SC = Seizure threshold after treatment with test drug
C=CCNC(=O)N1CC(c2ccc(C(C)(C)C)cc2)C1 [Example 2, 3-(4-tert-Butylphenyl)-N-(2-propenyl)azeddine-1-carboxamide] | 24.2 mg/kg
C[C@H](O)CNC(=O)N1CC(c2ccc(F)cc2)C1 [Example 10] | 95.8 mg/kg
C[C@@H](O)CNC(=O)N1CC(c2ccc(C(C)(C)C)cc2)C1 [Example 4, (R)-3-(4-tert-Butylphenyl)-N-(2-hydroxypropyl)azetidine-1-carboxamide] | 27.3 mg/kg
C#CCNC(=O)N1CC(c2ccc(F)cc2)C1 [Example 6, 3-(4-Fluorophenyl)-N-(2-propynyl)azetddine-1-carboxamide] | 59.5 mg/kg
C=CCNC(=O)N1CC(c2ccc(F)cc2)C1 [Example 5, 3-(4-Fluoropbenyl)-N-(2-propenyl)azetidine-1-carboxamide] | 32.4 mg/kg
C#CCNC(=O)N1CC(c2ccc(C(C)(C)C)cc2)C1 [Example 3, 3-(4-tert-Butylphenyl)-N-(2-propynyl)azetidine-1-carboxamide] | 21.4 mg/kg
C[C@@H](O)CNC(=O)N1CC(c2ccc(F)cc2)C1 [Example 7, (R)-3-(4-Fluorophenyl)-N-(2-hydroxypropyl)azetidine-1-carboxamide] | 54.4 mg/kg
C#CCNC(=O)N1CC(c2ccc(Cl)cc2)C1 [Example 8, (3-(4-Chlorophenyl)-N-2-propynyl)azetidine-1-carboxamide] | 100 mg/kg
C[C@H](O)CNC(=O)N1CC(c2ccc(C(F)(F)F)cc2)C1 [Example 15] | 58.4 mg/kg
C[C@@H](O)CNC(=O)N1CC(c2ccc(Cl)cc2)C1 [Example 9, (R)-3-(4-Chlorophenyl)-N-(2-hydroxypropyl)azetidine-1-carboxiamide] | 29.7 mg/kg
C=CCNC(=O)N1CC(c2ccc(Cl)cc2)C1 [Example 1] | 42.7 mg/kg
C#CCNC(=O)N1CC(c2cccc(C(F)(F)F)c2)C1 [Example 19, 3-(3-(Trifluoromethyl)phenyl)-N-(2-propynyl)azetidine-1-carboxamide] | >200.0^a mg/kg

Test system: not given
Test: not given
Conditions: not given

Compound | melting point
O=C(NCCO)N1CC(c2ccc(F)cc2)C1 [Example 57] | 99 to 101 °C
NCC1CCN(C(=O)N2CC(c3ccc(Cl)cc3)C2)CC1 [Example 44] | 137 to 138 °C
CC(C)(O)CNC(=O)N1CC(c2ccc(F)cc2)C1 [Example 55] | 77 to 78.5 °C
CC(C)(O)CNC(=O)N1CC(c2cccc(C(F)(F)F)c2)C1 [Example 56] | 94.5 to 96 °C
C[C@H](O)CNC(=O)N1CC(c2cccc(Cl)c2)C1 [Example 51] | 78 to 80 °C
C=CCNC(=O)N1CC(c2cccc(F)c2)C1 [Example 54] | 62.5 to 63.5 °C
CC(=O)CNC(=O)N1CC(c2ccc(C(F)(F)F)cc2)C1 [Example 80] | 139.5 to 141 °C
C[C@@H](O)CNC(=O)N1CC(c2ccccc2Cl)C1 [Example 34] | 109 °C
C[C@@H](O)CNC(=O)N1CC(c2cccc(F)c2)C1 [Example 83] | 77.5 to 79 °C
C[C@@H](O)CNC(=O)N1CC(c2ccc(F)c(F)c2)C1 [Example 21] | 108 to 109 °C
C[C@@H](O)CNC(=O)N1CC(c2ccc(F)cc2F)C1 [Example 36] | 88 to 89 °C
C[C@@H](O)CNC(=O)N1CC(c2ccccc2C(F)(F)F)C1 [Example 32] | 89 °C
O=C(NC[C@H](O)CO)N1CC(c2ccc(Cl)cc2)C1 [Example 78] | 90 to 92 °C
C[C@@H](O)CNC(=O)N1CC(c2ccc3ccccc3c2)C1 [Example 63] | 143 to 144 °C
C[C@H](CO)NC(=O)N1CC(c2ccc(Cl)cc2)C1 [Example 40] | 82 to 85 °C
CC(C)(O)CNC(=O)N1CC(c2ccc(Cl)cc2)C1 [Example 66] | 114 to 115.5 °C
NC(=O)N1CC(c2ccc(F)cc2)C1 [Example 67] | 205 to 208.5 °C
C#CCNC(=O)N1CC(c2ccc(Cl)c(F)c2)C1 [Example 31] | 132 °C
CC(O)CNC(=O)N1CC(c2ccc(Cl)cc2)C1 (stereo not shown) [Example 71] | 92.5 to 94 °C

Compound | melting point
CCC(C)NC(=O)N1CC(c2ccc(F)cc2)C1 (stereo not shown) [Example 74] | 100 to 102 °C
C[C@@H](O)CNC(=O)N1CC(c2ccc(F)c(Cl)c2)C1 [Example 23] | 83 to 84 °C
C=CCNC(=O)N1CC(c2ccc(C(F)(F)F)cc2)C1 [Example 46] | 136 to 137.5 °C
C#CCNC(=O)N1CC(c2ccc(F)c(C(F)(F)F)c2)C1 [Example 28] | 119 °C
CC(C)(O)CNC(=O)N1CC(c2cc(F)cc(Cl)c2)C1 [Example 68] | 112.5 to 113.5 °C
C[C@@H](O)CNC(=O)N1CC(c2ccc(C(F)(F)F)cc2F)C1 [Example 58] | 106 to 107 °C
C#CCNC(=O)N1CC(c2ccc(F)c(Cl)c2)C1 [Example 26] | 133 °C
CC(C)(O)CNC(=O)N1CC(c2ccc(F)c(C(F)(F)F)c2)C1 [Example 64] | 110 to 111.5 °C
C=CCNC(=O)N1CC(c2cccc(C(F)(F)F)c2)C1 [Example 52] | 64 to 66 °C
CCCNC(=O)N1CC(c2ccc(C(F)(F)F)cc2)C1 [Example 47] | 127 to 128.5 °C
CC(C)(CO)NC(=O)N1CC(c2ccc(Cl)cc2)C1 [Example 41] | 134 to 135 °C
C#CCNC(=O)N1CC(c2cccc(Cl)c2)C1 [Example 59] | 90 to 105 °C (dec.)
C#CCNC(=O)N1CC(c2ccc(C(C)(C)C)cc2)C1 [Example 3, 3-(4-tert-Butylphenyl)-N-(2-propynyl)azetidine-1-carboxamide] | 141 °C
C[C@@H](O)CNC(=O)N1CC(c2ccc(F)cc2)C1 [Example 7, (R)-3-(4-Fluorophenyl)-N-(2-hydroxypropyl)azetidine-1-carboxamide] | 104 to 105 °C
C[C@@H](O)CNC(=O)N1CC(c2ccc(F)c(C(F)(F)F)c2)C1 [Example 27] | 69 to 71 °C
CC(C)(O)CNC(=O)N1CC(c2cccc(Cl)c2)C1 [Example 29] | 102 °C
C#CCNC(=O)N1CC(c2cccc(F)c2)C1 [Example 72] | 101.5 to 110.25 °C
C[C@@H](O)CNC(=O)N1CC(c2cc(F)cc(Cl)c2)C1 [Example 70] | 81 to 82.5 °C
O=C(NCCCO)N1CC(c2ccc(F)cc2)C1 [Example 65] | 90 to 93 °C

Compound | melting point
C#CCNC(=O)N1CC(c2ccccc2C(F)(F)F)C1 [Example 33] | 101 °C
C[C@@H](CO)NC(=O)N1CC(c2ccc(F)cc2)C1 [Example 77] | 118 to 120 °C
C#CCNC(=O)N1CC(c2ccc(F)c(F)c2)C1 [Example 25] | 123 °C
NC(=O)N1CC(c2cc(F)cc(Cl)c2)C1 [Example 69] | 198 to 200.5 °C
CCCNC(=O)N1CC(c2ccc(F)cc2)C1 [Example 45] | 117 to 118.5 °C
NC(=O)N1CC(c2cccc(C(F)(F)F)c2)C1 [Example 37] | 198 °C
O=C(NCCc1ccccn1)N1CC(c2ccc(Cl)cc2)C1 [Example 43] | 125 °C
COCC(C)NC(=O)N1CC(c2ccc(Cl)cc2)C1 (stereo not shown) [Example 38] | 110 °C
O=C(N[C@@H]1CCCC[C@H]1O)N1CC(c2ccc(F)cc2)C1 [Example 76] | 141 to 142.5 °C
C[C@H](O)CNC(=O)N1CC(c2cc(Cl)cc(Cl)c2)C1 [Example 49] | 110 to 111 °C
C=CCNC(=O)N1CC(c2cccc(Cl)c2)C1 [Example 53] | 65 to 66 °C
C[C@@H](O)CNC(=O)N1CC(c2cccc(Cl)c2Cl)C1 [Example 35] | 111 °C
CC(C)(O)CNC(=O)N1CC(c2ccc(C(F)(F)F)cc2)C1 [Example 84] | 123 to 124 °C
CC[C@@H](O)CNC(=O)N1CC(c2ccc(F)cc2)C1 (hydrate or solvate) [Example 75] | 77 to 79 °C
C#CCNC(=O)N1CC(c2cc(F)cc(Cl)c2)C1 [Example 61] | 108.5 to 110 °C
C[C@H](O)CNC(=O)N1CC(c2cccc(F)c2)C1 [Example 48] | 79.5 to 80 °C
C[C@H](CO)NC(=O)N1CC(c2ccc(Cl)cc2)C1 [Example 39] | 71 to 75 °C
C[C@H](NC(=O)N1CC(c2ccc(Cl)cc2)C1)[C@H](O)c1ccccc1 [Example 42] | 120 to 122 °C
CC(C)(N)CNC(=O)N1CC(c2ccc(Cl)cc2)C1 (as salt: HCl) [Example 79] | 183 to 184 °C

Test system: elevated zero-maze model of anxiety
Test: not given
Conditions: dose of 100 mg/Kg; orally by gavage 1 hour prior to zero-maze testing

Compound | anxiolytic activity (increase in the frequency of head dips)
C#CCNC(=O)N1CC(c2ccc(F)cc2)C1 [Example 6, 3-(4-Fluorophenyl)-N-(2-propynyl)azetddine-1-carboxamide] | effective

— patent publication US6831078B1, “Azetidinecarboxamide derivatives for treating CNS disorders” (Vernalis Research Limited, priority 1998, dated 2004)
